No end group written: not given here.
Experiments:
[1] = system: Pseudomonas aeruginosa; format: cell-based
Description: (§1) The antibacterial activities of the different peptides were determined by continuous monitoring of bacterial growth with a Bioscreen C microbiology reader (Labsystems Oy, Helsinki, Finland). The test was performed in 100-well flat-bottomed honeycomb plates, in which 50 μl of test fractions were incubated with 50 μl of a suspension of an actively growing culture of bacteria diluted in Mueller Hinton medium to a starting concentration of 3×10^4 cells per ml. […] [NT] 13032) and S. aureus (ATCC 9144), were chosen as test bacteria. […] Polymyxin B (Sigma, St.

[2] = system: Listonella (Vibrio) anguillarum, serotype O2 (FT 1801); format: cell-based
Description: as §1

[3] = system: Penicillum rogveforti; experiment: Antifungal MIC; format: cell-based; details: filamentous fungi; more than 50% inhibition of visible growth, 48 h
Description: (§2) The various derivates of P17 (brominated and non-brominated) were tested for their ability to inhibit fungal growth of the yeast strains Saccaharomyces cerevisiae sp, Candida albicans (ATCC 10231) and Rodotorula sp., and the filamentous strains Botrytis cinerea 101, Penicillium rogveforti, and Fusarium sp. All strains, except C. albicans, were a gift from Prof. A. Tronsmo (The Norwegian University of Life Sciences, Ås, Norway). The fungi were cultivated on potato dextrose agar, supplemented with 2% glucose, at room temperature. Before antifungal testing, the fungi were dissolved in potato dextrose broth (Difco) at half-strength. Cell concentration was determined and adjusted after counting in a Bürker chamber. The filamentous fungi were filtered through a piece of cotton before counting. An aliquot of 50 μl of fungal spores (final concentration 2×10^5 spores per ml) were inoculated in microtiter plates (96 wells) along with 50 μl peptide solution. Peptides, dissolved in distilled water, were tested at final concentrations (two-fold dilutions) ranging from 50 μM to 0.1 μM. Cultures were grown in the dark (without shaking) and with a moist chamber at 25° C. (37° C. for C. albicans). Growth inhibition was determined microscopically after 48 h of incubation. MIC was determined as the lowest concentration of peptide resulting in 50% inhibition of visible growth.

[4] = system: S. aureus (ATCC 9144); format: cell-based, Staphylococcus aureus; details: ATCC 9144
Description: as §1

[5] = system: E. coli (ATCC 25922); format: cell-based, Escherichia coli
Description: as §1

[6] = system: Botrytis cinerea 101; details: 48 h
Description: as §2

[7] = system: Saccharomyces cerevisiae; details: 48 h
Description: as §2

[8] = system: Candida albicans (ATCC 10231); details: ATCC 10231, 48 h
Description: as §2

[9] = system: C. glutamicum (ATCC 13032); format: cell-based, Corynebacterium glutamicum
Description: as §1

[10] = system: E. coli K-12; experiment: Bacterial cell viability, lux luminescence and OD600, with or without LPS; format: cell-based, Escherichia coli; details: co-incubation with 2.5 μM Aeromonas salmonicida LPS
Text: (§3) To evaluate the effect of antimicrobial peptides on the viability of bacteria in a fast and reliable manner we used the lux CDABE operon from Photorhabdus luminescens as a reporter system in gram negative test bacteria and the modified luxABCDE operon in S. aureus (Vesterlund et al. 2004). Bacterial bioluminescence is directly dependent on metabolic activity, since reduction equivalents are needed to drive light emission. Any form of interruption of bacterial cell integrity or metabolism will therefore be detected as a reduction in light emission.
(§4) For the assay we used S. aureus (RN4220), E. coli K-12 and Salmonella enterica serovar typhimurium (ATCC 14028) transformed with the respective lux-operon containing plasmids (Vesterlund et al. 2004).
(§5) For each experiment a fresh colony was picked from Luria-Bertani plates supplemented with 10 μg/ml of erythromycin in case of S. aureus and with 100 μg/ml of ampicillin in case of E. coli and S. enterica serovar Typhimurium. Each colony was suspended in 5 ml of Müller-Hinton medium with appropriate antibiotics. The culture was incubated over night at 37° C. in a shaking incubator. The next morning 0.5 ml of this culture was transferred to 30 ml fresh MH medium in an Erlenmeyer-flask supplemented with the respective antibiotic. The flask was incubated (200 rpm shaking; 37° C.) until an OD600 of 0.5-0.8 was reached. The culture was then diluted to an OD600 of about 0.02-0.03 before transfer to the 96 well opaque plates with optical bottom (Packard ViewPlate) used for the assay.
The synthesized peptides were dissolved in water and aliquots frozen at −18° C. until use. Twofold dilutions of test peptides (final concentrations ranging from 0.31 to 80 μM) were directly prepared in 96 well microtiter plates in a volume of 10 μl in water. 90 μl is of indicator bacteria in MH medium were added directly to the prepared and pre-warmed (30 minutes at 37° C.) plate before starting the measurement in a Victor multiplate reader (Perkin Elmer) at 37° C. Both OD600 and luminescence in counts per second (cps) were followed over 5 hours in measuring intervals of 5 minutes. The plates where shaken before each measurement (20 sec.; 5 mm orbital shaking; 10 sec waiting). The growth curves and light emission curves were drawn and evaluated to determine the MIC for each indicator strain. The MIC was defined as the concentration of test compound causing more than 50% reduction in bioluminescence (cps) or optical density (OD600) after 5 hours, compared to the growth control. Cecropin P1 was used as positive control. […]
A second plate with an otherwise similar setup (as described for the luminescence assay in example 3) was prepared, but with addition of Aeromonas salmonicida LPS to the peptide dilutions before pre-warming. […]

[11] = system: L. anguillarum; format: cell-based, Listonella (Vibrio) anguillarum
Description: (§6) The Gram-negative bacteria Listonella (Vibrio) anguillarum, serotype O2 (FT 1801, also coded as AL 104/LFI 6004), originally isolated from Atlantic salmon by staff of the Norwegian Veterinary Institute (Oslo, Norway), Escherichia con (ATCC 25922), and the Gram-positive bacteria Staphylococcus aureus (ATCC 9144) and Corynebacterium glutamicum (ATCC 13032) were used as test organisms. All isolates were grown at room temperature in Mueller Hinton Broth (MBB; Difco Laboratories, Detroit, U.S.A).
(§7) The antibacterial activities of the obtained HPLC fractions were determined by continuous monitoring of bacterial growth with a Bioscreen C microbiology reader (Labsystems Oy, Helsinki, Finland). The test was performed in 100-well flat-bottomed honeycomb plates, in which […] of test fractions were incubated with 50 μl of a suspension of an actively growing culture of bacteria diluted to a starting concentration of 5×10^3 cells per well. The growth chamber was maintained at 20° C. during the incubation period. The absorbance was measured at 2 h intervals for 48 h by a turbidometric method with vertical light photometry and a wide band filter (420-580 nm), which is more insensitive to colour change in the sample compared to single wavelength detection. Cecropin P1(0.5 μg/ml) was used as a positive control during these experiments. Antibacterial activity was determined when the optical density (OD) of the growth control (bacteria plus water) reached an absorbance of approximately 0.3. Fractions were regarded as active when the OD was less than 50% of the growth control.
(§8) The polypeptides of the present invention were isolated and subsequently tested for activity. A serial dilution method was employed to examine the antibacterial activity of the peptides. Two Gram-negative bacteria, L. anguillarum and E. coli, and two Gram-positive bacteria, C. glutamicum and S. aureus, were chosen as test bacteria. The polypeptides of the present invention were active against both Gram-positive and Gram-negative bacteria (table 4).

[12] = system: S. aureus; format: cell-based, Staphylococcus aureus
Description: as §6, §7, §8

[13] = system: Salmonella enterica serovar typhimurium (ATCC 14028); experiment: Bacterial cell viability, lux luminescence and OD600, with or without LPS; format: cell-based; details: co-incubation with 2.5 μM Aeromonas salmonicida LPS
Text: as §3, §4, §5
The synthesized peptides were dissolved in water and aliquots frozen at −18° C. until use. Twofold dilutions of test peptides (final concentrations ranging from 0.31 to 80 μM) were directly prepared in 96 well microtiter plates in a volume of 10 μl in water. 90 μl is of indicator bacteria in MH medium were added directly to the prepared and pre-warmed (30 minutes at 37° C.) plate before starting the measurement in a Victor multiplate reader (Perkin Elmer) at 37° C. Both OD600 and luminescence in counts per second (cps) were followed over 5 hours in measuring intervals of 5 minutes. The plates where shaken before each measurement (20 sec.; 5 mm orbital shaking; 10 sec waiting). The growth curves and light emission curves were drawn and evaluated to determine the MIC for each indicator strain. The MIC was defined as the concentration of test compound causing more than 50% reduction in bioluminescence (cps) or optical density (OD600) after 5 hours, compared to the growth control. Cecropin P1 was used as positive control. The results (table 14a-b) confirm the results obtained in example 2, showing a pronounced antibacterial effect of the longest peptide fragments. […] The partial peptides P17 HC (1-20), both bromated and unbromated, inhibit growth only in higher concentrations.
A second plate with an otherwise similar setup (as described for the luminescence assay in example 3) was prepared, but with addition of Aeromonas salmonicida LPS to the peptide dilutions before pre-warming. The LPS end concentration in each well was approximately 2.5 μM.

[14] = system: C. glutamicum; format: cell-based, Corynebacterium glutamicum
Description: as §6, §7, §8

[15] = system: E. coli; format: cell-based, Escherichia coli
Description: as §6, §7, §8

Sequence | Minimal inhibitory concentration, P. aeruginosa [1] [µM] | Minimal inhibitory concentration, L. anguillarum [2] [µM] | Minimal inhibitory concentration (MIC), Penicillum rogveforti [3] [µM] | Minimal inhibitory concentration, S. aureus [4] [µM] | Minimal inhibitory concentration, E. coli [5] [µM] | Minimal inhibitory concentration (MIC), Botrytis cinerea [6] [µM] | Minimal inhibitory concentration (MIC), Saccharomyces cerevisiae [7] [µM] | Minimal inhibitory concentration (MIC), Candida albicans [8] [µM] | Minimal inhibitory concentration, C. glutamicum [9] [µM] | MIC, more than 50% reduction in optical density, E. coli, P + LPS ([10]; OD600, 5 hours) [µM] | MIC, more than 50% reduction in luminescence, E. coli, P + LPS ([10]; luminescence (cps), 5 hours) [µM] | Minimal inhibitory concentration (MIC), L. anguillarum [11] [µM] | Minimal inhibitory concentration (MIC), S. aureus [12] [µM] | MIC, more than 50% reduction in optical density, S. enterica, P + LPS ([13]; OD600, 5 hours) [µM] | MIC, more than 50% reduction in luminescence, S. enterica, P + LPS ([13]; luminescence (cps), 5 hours) [µM] | Minimal inhibitory concentration (MIC), C. glutamicum [14] [µM] | Minimal inhibitory concentration (MIC), E. coli [15] [µM]
DLRGACAAAHAL [P17 LC] | >100 | >100 | >100 | >100 | >100 | >100 | >100 | >100 | >100 |  |  |  |  |  |  |  | 
SWLSKTAKKLENSAKKRISEGIAIAIQGGPR [Cecropin P1, reference compound] |  |  |  |  |  |  |  |  |  | 20 | 20 | 1.2 | 12.5 | 10 | 10 | 1.6 | 1.2

Source: patent publication US20100093642A1, “NOVEL POLYPEPTIDES” (priority 2006, published 2010)
